# Laboratory results taken from ChEMBL document CHEMBL1201862, “PubChem BioAssay data set” (2004).
# Active and inactive are the calls of the source.
# How the values were obtained:
# Protein RecA = biological target: T1, Protein RecA (Mycobacterium tuberculosis, UniProt P9WHJ3); assay: Fluorescence Cell-Free Homogeneous Dose Retest to Identify Inhibitors of RecA-Intein Splicing Activity. [Related pubchem assays (depositor defined):AID2097, AID2223, AID489010, AID492950]; format: functional
# T1 sequence (P9WHJ3 whole entry): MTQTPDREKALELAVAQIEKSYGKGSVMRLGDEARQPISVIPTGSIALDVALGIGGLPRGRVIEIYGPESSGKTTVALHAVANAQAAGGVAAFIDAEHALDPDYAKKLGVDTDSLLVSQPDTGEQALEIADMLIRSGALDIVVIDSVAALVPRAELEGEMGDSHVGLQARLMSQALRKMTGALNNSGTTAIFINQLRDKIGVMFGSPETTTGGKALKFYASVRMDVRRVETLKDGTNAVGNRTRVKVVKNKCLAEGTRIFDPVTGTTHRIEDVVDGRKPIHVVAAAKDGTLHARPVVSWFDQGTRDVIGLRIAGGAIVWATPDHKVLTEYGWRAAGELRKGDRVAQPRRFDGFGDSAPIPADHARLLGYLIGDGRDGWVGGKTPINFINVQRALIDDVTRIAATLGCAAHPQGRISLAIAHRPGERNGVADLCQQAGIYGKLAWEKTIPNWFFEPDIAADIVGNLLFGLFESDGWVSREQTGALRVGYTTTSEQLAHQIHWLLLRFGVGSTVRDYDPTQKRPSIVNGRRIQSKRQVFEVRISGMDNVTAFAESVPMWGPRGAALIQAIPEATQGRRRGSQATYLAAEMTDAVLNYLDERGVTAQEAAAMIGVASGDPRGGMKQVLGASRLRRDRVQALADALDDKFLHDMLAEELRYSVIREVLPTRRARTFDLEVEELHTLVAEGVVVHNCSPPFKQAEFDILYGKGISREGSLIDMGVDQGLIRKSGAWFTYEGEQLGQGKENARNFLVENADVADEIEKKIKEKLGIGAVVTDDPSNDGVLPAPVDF
# [1] = biological target: T2, Replicative DNA helicase DnaB (Mycobacterium tuberculosis, UniProt P9WMR3); assay: DnaB intein splicing inhibitors, dose response, biochemical, cell-free fluorescence (AID 449749); format: functional
# T2 sequence (P9WMR3 whole entry): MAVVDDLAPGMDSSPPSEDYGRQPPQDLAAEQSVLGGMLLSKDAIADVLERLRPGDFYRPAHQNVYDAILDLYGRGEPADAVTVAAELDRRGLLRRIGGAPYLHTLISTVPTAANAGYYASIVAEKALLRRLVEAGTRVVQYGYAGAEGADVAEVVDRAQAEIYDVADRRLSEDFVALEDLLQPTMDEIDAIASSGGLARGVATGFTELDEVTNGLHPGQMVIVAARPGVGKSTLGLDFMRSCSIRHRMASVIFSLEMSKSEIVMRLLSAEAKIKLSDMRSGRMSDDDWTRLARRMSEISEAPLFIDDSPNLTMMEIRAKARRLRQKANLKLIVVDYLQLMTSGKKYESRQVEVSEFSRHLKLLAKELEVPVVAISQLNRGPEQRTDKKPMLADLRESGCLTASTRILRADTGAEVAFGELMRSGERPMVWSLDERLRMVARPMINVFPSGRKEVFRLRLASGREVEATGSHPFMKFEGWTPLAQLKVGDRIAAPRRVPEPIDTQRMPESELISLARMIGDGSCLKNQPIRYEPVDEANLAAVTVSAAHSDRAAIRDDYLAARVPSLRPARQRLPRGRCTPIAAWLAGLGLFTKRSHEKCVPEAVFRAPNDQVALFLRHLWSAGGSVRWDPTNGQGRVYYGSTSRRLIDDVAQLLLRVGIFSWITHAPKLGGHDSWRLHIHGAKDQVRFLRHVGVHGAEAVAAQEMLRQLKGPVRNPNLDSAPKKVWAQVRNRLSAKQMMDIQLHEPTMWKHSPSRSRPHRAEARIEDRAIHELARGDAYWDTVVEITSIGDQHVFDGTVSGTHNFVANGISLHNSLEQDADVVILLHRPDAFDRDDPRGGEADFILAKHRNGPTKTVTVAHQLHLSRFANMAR
# [2] = biological target: T3, Heat shock factor protein 1 (Mus musculus, UniProt P38532); assay: HSF1 potentiators in luciferase reporter cells, confirmation, cell-based, NIH3T3, luminescence, dose retest (AID 435004); format: functional;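 note: stress induced by proteasome inhibitor MG132 added 30 min after compound; luciferase reporter driven by HSF1 response element in NIH3T3 cells; actives raise luminescence as potentiators of the MG132 stress response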
# T3 sequence (P38532 whole entry): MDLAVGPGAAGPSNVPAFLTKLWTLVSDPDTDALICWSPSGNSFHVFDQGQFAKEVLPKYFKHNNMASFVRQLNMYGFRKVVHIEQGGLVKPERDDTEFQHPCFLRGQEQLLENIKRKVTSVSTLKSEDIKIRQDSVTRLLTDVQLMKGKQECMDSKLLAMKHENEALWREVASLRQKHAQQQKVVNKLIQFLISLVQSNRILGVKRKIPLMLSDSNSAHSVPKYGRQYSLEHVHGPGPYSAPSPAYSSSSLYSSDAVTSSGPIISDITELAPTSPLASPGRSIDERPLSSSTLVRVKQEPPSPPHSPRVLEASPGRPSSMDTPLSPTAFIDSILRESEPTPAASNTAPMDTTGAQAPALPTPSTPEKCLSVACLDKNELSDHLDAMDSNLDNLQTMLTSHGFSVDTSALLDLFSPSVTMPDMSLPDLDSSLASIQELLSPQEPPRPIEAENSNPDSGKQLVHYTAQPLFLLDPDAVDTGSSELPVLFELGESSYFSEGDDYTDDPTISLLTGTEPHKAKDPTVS
# [3] = biological target: Luciferin 4-monooxygenase (Photinus pyralis, UniProt P08659); assay: firefly luciferase enzyme inhibitors, dose response, biochemical, luminescence (AID 1891)
# Cytochrome P450 1A2 = biological target: T4, Cytochrome P450 1A2 (Homo sapiens, UniProt P05177);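 note: PubChem cytochrome P450 panel assay, CYP1A2 panel member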
# T4 sequence (P05177 whole entry): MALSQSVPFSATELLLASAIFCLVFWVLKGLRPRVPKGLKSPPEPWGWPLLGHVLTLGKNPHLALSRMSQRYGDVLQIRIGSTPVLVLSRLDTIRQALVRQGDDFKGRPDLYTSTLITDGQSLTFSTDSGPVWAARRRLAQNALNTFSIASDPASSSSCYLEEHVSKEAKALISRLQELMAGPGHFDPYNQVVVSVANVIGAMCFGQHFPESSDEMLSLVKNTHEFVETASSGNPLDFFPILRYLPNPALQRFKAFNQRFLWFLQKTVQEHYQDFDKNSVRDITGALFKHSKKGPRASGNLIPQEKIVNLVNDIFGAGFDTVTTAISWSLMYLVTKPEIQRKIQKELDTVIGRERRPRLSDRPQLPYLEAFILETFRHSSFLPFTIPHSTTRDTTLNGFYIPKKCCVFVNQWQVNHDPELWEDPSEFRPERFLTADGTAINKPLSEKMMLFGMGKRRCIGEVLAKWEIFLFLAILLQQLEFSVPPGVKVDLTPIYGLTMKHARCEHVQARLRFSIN
# [4] = biological target: T5, Microphthalmia-associated transcription factor (Homo sapiens, UniProt O75030); assay: TRPM1 promoter luciferase signal decrease, dose response, MITF inhibitor project, cell-based, SK-MEL-5, cherry-picked, set 3 (AID 493073); format: functional
# T5 sequence (O75030 whole entry): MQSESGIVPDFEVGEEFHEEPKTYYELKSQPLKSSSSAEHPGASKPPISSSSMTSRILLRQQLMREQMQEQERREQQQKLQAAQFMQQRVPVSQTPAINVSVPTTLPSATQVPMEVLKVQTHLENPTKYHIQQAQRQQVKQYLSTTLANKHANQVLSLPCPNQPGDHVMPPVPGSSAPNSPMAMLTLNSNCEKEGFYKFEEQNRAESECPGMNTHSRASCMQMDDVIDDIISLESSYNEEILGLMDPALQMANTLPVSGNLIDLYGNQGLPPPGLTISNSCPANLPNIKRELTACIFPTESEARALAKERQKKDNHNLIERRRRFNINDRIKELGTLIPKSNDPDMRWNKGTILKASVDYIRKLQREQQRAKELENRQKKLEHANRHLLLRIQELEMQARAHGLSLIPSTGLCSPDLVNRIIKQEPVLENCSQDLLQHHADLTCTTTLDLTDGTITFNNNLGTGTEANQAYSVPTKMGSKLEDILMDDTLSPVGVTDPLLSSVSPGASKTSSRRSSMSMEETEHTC
# [5] = Luminescence Cell-Based Dose Confirmation HTS to Identify Inhibitors of Platelet Dense Granule Release. [Related pubchem assays: 1663 (Primary HTS), 1678 (Summary of Project)]; format: functional
# Paired box protein Pax-8 = Paired box protein Pax-8 (Homo sapiens, UniProt Q06710); assay: inhibitors of PAX8-driven TPO luciferase reporter, dose response, RMG-I cells, cherry-pick (AID 687027); format: functional, cell-based;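 note: luciferase reporter driven by Pax8 target thyroperoxidase promoter measured by SteadyGlo luminescence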
# [6] = biological target: T3, Heat shock factor protein 1; assay: inhibition of MG132-induced HSE-luciferase signal, confirmation, cell-based, NIH3T3, luminescence, dose retest (AID 2382); format: functional;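 note: NIH3T3 fibroblasts with HSF1-driven luciferase reporter stressed by proteasome inhibitor MG132; luminescence from HSF1-driven luciferase expression after 8 hours of MG132 stress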
# [7] = cytotoxicity toward NIH3T3 fibroblasts, dose response, counter-screen, cell-based, ATP luminescence, mouse fibroblasts (AID 2010); format: functional;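 note: cells exposed to compound for about 90 hours before reading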
# [8] = inhibitors of intracellular T. cruzi replication, confirmation, NIH3T3 host cells, beta-gal luminescence (AID 2044); format: functional, cell-based;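 note: intracellular parasites grown in NIH/3T3 mouse fibroblasts as host cells; luminescent beta-galactosidase reporter signal from transgenic T. cruzi replicating inside host cells; inhibitors lower the luminescence signal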
# INS1 = assay: beta cell apoptosis inhibitors, cytokine rescue, dose response, luminescence, retest (AID 449756); format: functional, cell-based; conditions: Rattus norvegicus;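 note: cell death triggered by IL-1 beta plus TNF-alpha plus IFN-gamma mixture; protective hits raise ATP signal compared with cytokine alone wells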
# Nonstructural protein 1 = Nonstructural protein 1 (Influenza A virus, UniProt Q194T2); format: functional, Influenza A virus (A/California/07/2009(H1N1))
# [9] = biological target: T6, Rac GTPase-activating protein 1 (Homo sapiens, UniProt Q9H0H5); assay: MgcRacGAP GTPase-activating activity inhibitors, confirmation, biochemical, ADP Hunter fluorescence, primary and confirmatory (AID 624330); format: functional
# T6 sequence (Q9H0H5 whole entry): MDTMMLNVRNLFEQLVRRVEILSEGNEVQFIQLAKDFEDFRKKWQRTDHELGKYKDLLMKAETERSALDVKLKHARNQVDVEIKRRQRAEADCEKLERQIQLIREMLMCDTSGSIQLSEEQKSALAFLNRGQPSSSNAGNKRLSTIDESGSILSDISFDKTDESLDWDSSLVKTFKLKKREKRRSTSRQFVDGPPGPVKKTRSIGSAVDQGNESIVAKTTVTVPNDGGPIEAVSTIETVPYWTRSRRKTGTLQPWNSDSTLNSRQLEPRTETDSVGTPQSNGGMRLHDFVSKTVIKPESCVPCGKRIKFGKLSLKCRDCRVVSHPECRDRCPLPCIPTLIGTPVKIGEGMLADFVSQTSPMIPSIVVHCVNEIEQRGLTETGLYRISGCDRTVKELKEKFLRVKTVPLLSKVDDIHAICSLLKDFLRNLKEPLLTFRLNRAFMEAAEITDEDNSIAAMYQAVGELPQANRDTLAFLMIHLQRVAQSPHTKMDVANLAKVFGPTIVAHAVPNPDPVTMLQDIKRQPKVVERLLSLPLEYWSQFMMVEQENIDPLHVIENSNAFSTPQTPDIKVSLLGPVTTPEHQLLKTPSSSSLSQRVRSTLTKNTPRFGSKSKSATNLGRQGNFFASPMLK
# Large T antigen = Large T antigen (Simian virus 40, UniProt P03070); format: functional, Betapolyomavirus macacae;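 note: Confirmatory-stage PubChem screen for compounds that inhibit SV40 T antigen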
# Sequence of Large T antigen (P03070 whole entry): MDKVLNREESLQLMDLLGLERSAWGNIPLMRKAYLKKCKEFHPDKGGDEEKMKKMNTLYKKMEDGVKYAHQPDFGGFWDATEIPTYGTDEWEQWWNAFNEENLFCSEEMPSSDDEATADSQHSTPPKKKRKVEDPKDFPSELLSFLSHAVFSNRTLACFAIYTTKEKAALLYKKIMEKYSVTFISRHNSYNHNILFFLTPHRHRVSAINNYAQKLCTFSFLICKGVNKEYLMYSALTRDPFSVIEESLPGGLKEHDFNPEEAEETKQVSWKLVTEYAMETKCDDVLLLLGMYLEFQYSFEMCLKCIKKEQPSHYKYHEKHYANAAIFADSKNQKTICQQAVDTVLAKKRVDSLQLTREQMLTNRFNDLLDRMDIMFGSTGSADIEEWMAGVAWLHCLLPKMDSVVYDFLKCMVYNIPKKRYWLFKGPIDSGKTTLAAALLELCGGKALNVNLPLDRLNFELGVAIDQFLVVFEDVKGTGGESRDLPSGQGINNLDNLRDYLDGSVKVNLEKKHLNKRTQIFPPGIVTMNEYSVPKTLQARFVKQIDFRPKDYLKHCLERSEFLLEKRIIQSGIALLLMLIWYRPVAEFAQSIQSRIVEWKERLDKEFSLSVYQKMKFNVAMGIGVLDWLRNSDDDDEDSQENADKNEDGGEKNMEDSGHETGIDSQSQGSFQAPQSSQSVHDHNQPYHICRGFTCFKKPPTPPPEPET
# Sequence of Paired box protein Pax-8 (Q06710 whole entry): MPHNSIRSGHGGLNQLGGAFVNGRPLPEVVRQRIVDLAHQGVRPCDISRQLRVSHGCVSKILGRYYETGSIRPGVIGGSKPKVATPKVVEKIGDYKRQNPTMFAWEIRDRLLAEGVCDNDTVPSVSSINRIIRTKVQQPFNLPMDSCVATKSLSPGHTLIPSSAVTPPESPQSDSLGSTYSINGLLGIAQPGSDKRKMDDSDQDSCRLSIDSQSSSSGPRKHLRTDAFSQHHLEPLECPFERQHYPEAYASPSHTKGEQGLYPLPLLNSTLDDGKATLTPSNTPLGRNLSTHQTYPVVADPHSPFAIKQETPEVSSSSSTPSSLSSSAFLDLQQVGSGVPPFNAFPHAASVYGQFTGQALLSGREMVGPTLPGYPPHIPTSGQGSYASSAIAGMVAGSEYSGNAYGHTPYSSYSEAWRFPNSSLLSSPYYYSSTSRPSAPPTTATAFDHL
# Sequence of Nonstructural protein 1 (Q194T2 whole entry): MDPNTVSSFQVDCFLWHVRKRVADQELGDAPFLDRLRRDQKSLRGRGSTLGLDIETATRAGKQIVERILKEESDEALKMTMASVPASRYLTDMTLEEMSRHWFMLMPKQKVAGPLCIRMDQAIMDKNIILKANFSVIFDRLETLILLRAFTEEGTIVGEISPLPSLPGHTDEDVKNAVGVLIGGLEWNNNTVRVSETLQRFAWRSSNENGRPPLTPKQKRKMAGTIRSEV
# Sequence of Luciferin 4-monooxygenase (P08659 whole entry): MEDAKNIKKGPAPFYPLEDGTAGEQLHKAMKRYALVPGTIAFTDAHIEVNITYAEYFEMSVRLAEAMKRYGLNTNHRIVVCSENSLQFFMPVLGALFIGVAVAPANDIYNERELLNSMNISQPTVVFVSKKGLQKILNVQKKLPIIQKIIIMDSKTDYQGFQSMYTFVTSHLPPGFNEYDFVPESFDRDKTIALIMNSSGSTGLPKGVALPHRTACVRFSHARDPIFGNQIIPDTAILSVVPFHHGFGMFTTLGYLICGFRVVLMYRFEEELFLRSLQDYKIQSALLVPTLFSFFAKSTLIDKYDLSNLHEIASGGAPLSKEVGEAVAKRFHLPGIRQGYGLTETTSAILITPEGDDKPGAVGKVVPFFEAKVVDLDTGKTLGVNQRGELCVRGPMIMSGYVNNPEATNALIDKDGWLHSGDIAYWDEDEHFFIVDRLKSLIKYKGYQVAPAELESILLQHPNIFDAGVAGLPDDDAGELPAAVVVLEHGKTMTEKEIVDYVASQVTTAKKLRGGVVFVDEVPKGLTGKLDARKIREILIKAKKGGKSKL
compound,measurement,setting,value
COc1cc(C(=O)NCC(=O)N/N=C/c2cccc(OC(=O)c3ccco3)c2)cc(OC)c1OC,EC50,Protein RecA,16.6 µM (active)
same,AC50,[1],36 µM (active)
O=c1c2ccccc2nc(SCc2nnc(-c3ccccc3Br)o2)n1Cc1ccco1,EC50,[2],> 260 µM (inactive)
COc1ccc(CCNC(=O)Nc2cccc([N+](=O)[O-])c2)cc1OC,EC50,[2],> 260 µM (inactive)
CSc1sc(C(=O)Nc2ccc(F)cc2F)c2c1C=CCC2,EC50,[2],> 260 µM (inactive)
COc1cc(/C=N/NC(N)=O)c(Br)cc1OCC(=O)Nc1ccccc1C,EC50,[3],> 112 µM (not active)
same,AC50,Cytochrome P450 1A2,14.1 µM (inconclusive)
same,AC50,[4],17.8 µM (active)
same,EC50,[5],> 112 µM (not active)
CCC(=O)N1CCN(c2ccc(NC(=O)c3ccc([N+](=O)[O-])o3)cc2)CC1,AC50,Paired box protein Pax-8,5.31 µM (active)
same,EC50,[6],> 195 µM (not active)
same,EC50,[7],7.54 µM (active)
same,AC50,[4],8.68 µM (active)
same,EC50,[8],5.98 µM (active)
O=C(N/N=C/C=C(\O)c1ccc([N+](=O)[O-])cc1)c1ccccc1,AC50,INS1,1.76 µM (active)
same,EC50,[7],17.6 µM (active)
same,AC50,[4],9.19 µM (active)
same,EC50,[8],2.02 µM (active)
CCCc1n[nH]c(O)c1C(c1ccc(Cl)cc1)C(C#N)C#N (stereo not drawn),EC50,Protein RecA,4.14 µM (active)
same,AC50,[1],8.44 µM (active)
O=C1C=CC(=C(c2ccc(O)cc2)c2ccc(O)cc2)C=C1 [AURIN],AC50,Paired box protein Pax-8,8.81 µM (active)
same,IC50,Nonstructural protein 1,59.1 µM (active)
same,AC50,[4],9.92 µM (active)
Cc1cccc2sc(N(CCCN(C)C)C(=O)c3nc4ccccc4s3)nc12,AC50,[4],10.9 µM (active)
CN(C)c1ccc(NC2=C([N+](=O)[O-])CS(=O)(=O)C2)cc1,IC50,[9],42.7 µM (active)
same,IC50,Large T antigen,5.71 µM (active)
C=C1CCC[C@]2(C)C[C@H]3OC(=O)C(CN4CCCCC4CO)[C@H]3CC12 (stereo partly drawn),AC50,[4],11 µM (active)
CC(C)OC(=O)c1c(NC(=O)Cn2cnc([N+](=O)[O-])n2)sc2c1CCCC2,EC50,[7],> 60 µM (not active)
same,EC50,[8],0.203 µM (active)
same,EC50,[2],> 260 µM (inactive)
Cc1ccc(O)c(NC(=O)CSc2n[nH]c(-c3ccccc3)n2)c1,EC50,[2],10 µM (active)
Cc1ccc(-n2cc(CNCCN3CCOC3=O)c(-c3cccc(C)c3)n2)cc1,EC50,[2],> 260 µM (inactive)
CC1CN(C(=S)NC(=O)C2CCCCC2)CC(C)O1 (stereo not drawn),EC50,[2],> 260 µM (inactive)
